Holding throughout (settings): 200 ppm
The subject of assay [1] is Plasmopara viticola. The experiment in a line: Test D: grape downy mildew, spray after inoculation of grape seedlings. In kind it is in vivo. From the text:
Upon removal, disease ratings were made. […] A dash (-) indicates no test results.

Assay [2] has as its system Phytophthora infestans. The assay can be described thus: whole plant or invertebrate. In kind it is in vivo.
Assay [3] concerns Septoria tritici. The assay can be described thus: Test J: wheat leaf blotch, preventive spray on wheat seedlings. Type of assay: in vivo. From the text: A dash (-) indicates no test results.
The test system of assay [4] is fusarium graminearium. The experiment in a line: Test I: wheat head scab, preventive spray on wheat seedlings.
Description: (the causal agent of wheat head scab) and incubated in a saturated atmosphere at 20° C. for 72 h, and then moved to a growth chamber at 22° C. for 5 days, after which disease ratings were made.
The test system of assay [5] is Puccinia recondita f. sp. tritici. The assay can be described thus: Test K: wheat leaf rust, preventive spray on wheat seedlings.
In assay [6] the test system is Botrytis cinerea. The experiment in a line: Test E: tomato botrytis, preventive spray on tomato seedlings.
Assay [7] concerns Septoria nodorum. The experiment in a line: Test H: wheat glum blotch, preventive spray on wheat seedlings.
Description: (the causal agent of wheat glum blotch) and incubated in a saturated atmosphere at 20° C. for 48 h, and then moved to a growth chamber at 22° C. for 5 days, after which disease ratings were made.
In assay [8] the test system is Erysiphe graminis f. sp. tritici. The assay can be described thus: Test L: wheat powdery mildew, preventive spray on wheat seedlings.
The test system of assay [9] is Pythium aphanidermatum. The assay can be described thus: Test A: bluegrass pythium blight, preventive spray on bluegrass seedlings.
In assay [10] the test system is Rhizoctonia oryzae. The assay can be described thus: Test G: turf brown patch, preventive spray on creeping bent grass seedlings.
Description: (the causal agent of turf brown patch) and incubated in a saturated atmosphere at 27° C. for 24 h, and then moved to a growth chamber at 27° C. for 5 days, after which disease ratings were made.
Assay [11] concerns Colletotrichum orbiculare. The experiment in a line: Test B: cucumber Colletotrichum anthracnose, preventive spray on cucumber seedlings.

Each structure is given as a SMILES string.

In the case of `CC(C)n1c(-c2c(F)cccc2F)c(Cl)nc(-n2cccn2)c1=O` [compound 26], in assay [1], the “Test D disease control rating” value is reported as 16%. Also, the “Test F disease control rating” value in assay [2] is on record as 0%. Moreover, the “Test J disease control rating” value in assay [3] is listed as 96%. Also, in [4], the “Test I disease control rating” value turned out to be 0%. The “Test K disease control rating” value in [5] was determined as 100%. For the same compound, the “Test E disease control rating” value in assay [6] is 100%. Further, the “Test H disease control rating” value in assay [7] came out at 100%. In addition, in assay [8], the “Test L disease control rating” value is given as 100%. Moreover, the “Test A disease control rating” value in assay [9] stood at 0%. Further, the “Test G disease control rating” value in assay [10] worked out at 92%. For the same compound, the “Test B disease control rating” value in assay [11] was found to be 99%.
Regarding `CCCn1c(-c2c(F)cccc2F)c(Cl)nc(-n2cccn2)c1=O` [compound 27], in [1], the “Test D disease control rating” value stood at 47%. Moreover, in assay [2], the “Test F disease control rating” value amounted to 0%. Moreover, the “Test J disease control rating” value in assay [3] was 100%. For the same compound, in assay [4], the “Test I disease control rating” value stood at 0%. In addition, the “Test K disease control rating” value in assay [5] worked out at 100%. Besides, the “Test E disease control rating” value in [6] is 100%. Besides, the “Test H disease control rating” value in assay [7] is reported as 100%. For the same compound, the “Test L disease control rating” value in [8] is 100%. In assay [9], the “Test A disease control rating” value is 0%. Further, in [10], the “Test G disease control rating” value is on record as 67%. Moreover, the “Test B disease control rating” value in [11] came out at 99%.
Consider `CCCCCn1c(-c2c(F)cccc2F)c(Cl)nc(-n2cccn2)c1=O` [compound 28], for which the “Test D disease control rating” value in [1] is 0%. For the same compound, in assay [2], the “Test F disease control rating” value worked out at 0%. In addition, in assay [3], the “Test J disease control rating” value amounted to 100%. For the same compound, in assay [4], the “Test I disease control rating” value was determined as 0%. Moreover, the “Test K disease control rating” value in assay [5] was 97%. Also, in assay [6], the “Test E disease control rating” value is 92%. Also, the “Test H disease control rating” value in assay [7] is reported as 99%. For the same compound, in assay [8], the “Test L disease control rating” value stood at 97%. Further, the “Test A disease control rating” value in [9] stood at 0%. Moreover, the “Test G disease control rating” value in [10] is listed as 31%. In [11], the “Test B disease control rating” value amounted to 98%.
For the compound `CC(C)C(C)n1c(-c2c(F)cccc2F)c(Cl)nc(-n2cccn2)c1=O` (stereo not drawn) [compound 29], the “Test D disease control rating” value in [1] came out at 0%. The “Test F disease control rating” value in assay [2] is recorded as 0%. The “Test J disease control rating” value in assay [3] is 100%. In addition, the “Test I disease control rating” value in assay [4] is reported as 0%. Further, the “Test K disease control rating” value in assay [5] was 100%. Further, in [6], the “Test E disease control rating” value turned out to be 80%. Moreover, the “Test H disease control rating” value in [7] is 99%. Besides, the “Test L disease control rating” value in assay [8] came out at 98%. In addition, the “Test A disease control rating” value in assay [9] turned out to be 0%. Also, the “Test G disease control rating” value in assay [10] came to 95%. Further, in assay [11], the “Test B disease control rating” value amounted to 99%.
For the compound `C=C(C)Cn1c(-c2c(F)cccc2F)c(Cl)nc(-n2cccn2)c1=O` [compound 30], the “Test D disease control rating” value in assay [1] worked out at 0%. In addition, in [2], the “Test F disease control rating” value worked out at 0%. Besides, the “Test J disease control rating” value in assay [3] is 100%. Also, the “Test I disease control rating” value in assay [4] amounted to 0%. In addition, the “Test K disease control rating” value in assay [5] is reported as 100%. The “Test E disease control rating” value in [6] is on record as 99%. In assay [7], the “Test H disease control rating” value was found to be 100%. In assay [8], the “Test L disease control rating” value stood at 100%. Moreover, in [9], the “Test A disease control rating” value is given as 0%. For the same compound, the “Test G disease control rating” value in assay [10] was 98%. Besides, the “Test B disease control rating” value in assay [11] came out at 99%.
`O=c1c(-n2cccn2)nc(Cl)c(-c2c(F)cccc2F)n1CC1CCCCC1` [compound 31]: in [1], the “Test D disease control rating” value stood at 0%. Moreover, the “Test F disease control rating” value in assay [2] amounted to 0%. For the same compound, the “Test J disease control rating” value in [3] came out at 100%. In addition, in assay [4], the “Test I disease control rating” value is listed as 0%. Further, the “Test K disease control rating” value in [5] is 88%. Besides, in [6], the “Test E disease control rating” value was 97%. Besides, the “Test H disease control rating” value in [7] is 73%. In [8], the “Test L disease control rating” value came to 69%. Also, the “Test A disease control rating” value in assay [9] worked out at 0%. Further, in assay [10], the “Test G disease control rating” value is 0%. Further, in assay [11], the “Test B disease control rating” value worked out at 0%.

Values taken from US20080194585A1, “Fungicidal Pyrazine Derivatives” (priority 2005, published 2008).
